Experimental data as given in patent US11464749B2, “Bismuth-thiol compositions and methods of use” (Microbion Corporation, priority 2018, dated 2022).
Marks after values point to notes of the source that are not given here.

Experiments:
Assay in all cases: Broth microdilution antifungal susceptibility (Example 13)
Format in all cases: cell-based
[1] = system: A. niger; details: A. niger ATCC 29508; 48 hr only, insufficient growth for 24 hr read
[2] = system: Candida krusei
[3] = system: A. flavus
[4] = system: Candida auris
[5] = system: Candida albicans
[6] = system: A. terreus; details: A. terreus MMX 8229; 48 hr only, insufficient growth for 24 hr read
[7] = system: Candida glabrata
[8] = system: A. fumigatus

CC[C@H](C)C[C@H](C)CCCCCCCCC(=O)N[C@H]1C[C@@H](O)[C@@H](NCCN)NC(=O)[C@@H]2[C@@H](O)CCN2C(=O)[C@H]([C@H](O)CCN)NC(=O)[C@H]([C@H](O)[C@@H](O)c2ccc(O)cc2)NC(=O)[C@@H]2C[C@@H](O)CN2C(=O)[C@H]([C@@H](C)O)NC1=O [CASP]
MEC (minimum effective concentration) [1]: 0.06^b μg/mL | MIC2 (50% inhibition) ([2]; isolate ATCC 6258 (MICA-I)): 0.25 µg/mL | MIC2 (50% inhibition) ([2]; isolate ATCC 14243 (Susceptible)): 0.012 µg/mL | MIC2 (50% inhibition) ([2]; isolate ATCC 96685 (Susceptible)): 0.12 µg/mL | MIC2 (50% inhibition) ([2]; isolate MMX 7125 (Susceptible)): 0.25 µg/mL | MIC2 (50% inhibition) ([2]; isolate MMX 7128 (Susceptible)): 0.25 µg/mL | MIC2 (50% inhibition) ([2]; isolate MMX 7141 (Susceptible)): 0.25 µg/mL | MIC2 (50% inhibition) ([2]; isolate MMX 7153 (MICA-R)): 0.25 µg/mL | MIC2 (50% inhibition) ([2]; isolate MMX 7155 (Susceptible)): 0.25 µg/mL | MIC2 (50% inhibition) ([2]; isolate MMX 7563 (Susceptible)): 0.12 µg/mL | MIC2 (50% inhibition) ([2]; isolate MMX 9878 (MICA-I, VORI-I)): 0.25 µg/mL | MEC (minimum effective concentration) ([3]; A. flavus ATCC 22546): 0.06 µg/mL | MEC (minimum effective concentration) ([3]; A. flavus ATCC 204304): 0.06 µg/mL | MEC (minimum effective concentration) ([3]; A. flavus MMX 7935): 0.03 µg/mL | MIC2 (50% inhibition) ([4]; isolate MMX 9862 (Susceptible)): 0.12 µg/mL | MIC2 (50% inhibition) ([4]; isolate MMX 9863 (FLU-R, VORI-R)): 0.12^b μg/mL | MIC2 (50% inhibition) ([4]; isolate MMX 9864 (FLU-R, VORI-R)): 0.25^b μg/mL | MIC2 (50% inhibition) ([4]; isolate MMX 9865 (FLU-R, VORI-R)): 0.25^b μg/mL | MIC2 (50% inhibition) ([4]; isolate MMX 9866 (FLU-R, VORI-R)): 0.12^b μg/mL | MIC2 (50% inhibition) ([4]; isolate MMX 9867 (FLU-R, VORI-R)): 0.12 µg/mL | MIC2 (50% inhibition) ([4]; isolate MMX 9868 (FLU-R, VORI-R)): 0.25 µg/mL | MIC2 (50% inhibition) ([4]; isolate MMX 9869 (FLU-R, VORI-R)): 0.25 µg/mL | MIC2 (50% inhibition) ([4]; isolate MMX 9870 (FLU-R, VORI-R)): 0.25 µg/mL | MIC2 (50% inhibition) ([4]; isolate MMX 9871 (Susceptible)): 0.25^b μg/mL | MIC2 (50% inhibition) ([5]; isolate ATCC 90028 (Susceptible), 24 hr): 0.06 µg/mL | MIC2 (50% inhibition) ([5]; isolate ATCC 204276 (MICA-R), 24 hr): 0.25 µg/mL | MIC2 (50% inhibition) ([5]; isolate ATCC MYA-2732 (FLU-R, VORI-I), 24 hr): 0.06 µg/mL | MIC2 (50% inhibition) ([5]; isolate MMX 7053 (Susceptible), 24 hr): 0.06 µg/mL | MIC2 (50% inhibition) ([5]; isolate MMX 7067 (FLU-R, VORI-R), 24 hr): 0.06 µg/mL | MIC2 (50% inhibition) ([5]; isolate MMX 7403 (Susceptible), 24 hr): 0.06 µg/mL | MIC2 (50% inhibition) ([5]; isolate MMX 7424 (CASP-R, MICA-R), 24 hr): 8 µg/mL | MIC2 (50% inhibition) ([5]; isolate MMX 7430 (Susceptible), 24 hr): 0.06 µg/mL | MIC2 (50% inhibition) ([5]; isolate MMX 7437 (FLU-I), 24 hr): 0.06 µg/mL | MIC2 (50% inhibition) ([5]; isolate MMX 7445 (FLU-R, VORI-R), result after 48 hr incubation (insufficient growth at 24 hr)): 0.06^a μg/mL | MEC (minimum effective concentration) [6]: 0.12^b μg/mL | MIC2 (50% inhibition) ([7]; isolate ATCC 90030 (Susceptible)): 0.12 µg/mL | MIC2 (50% inhibition) ([7]; isolate ATCC MYA-2950 (Susceptible)): 0.12 µg/mL | MIC2 (50% inhibition) ([7]; isolate MMX 7087 (Susceptible)): 0.12 µg/mL | MIC2 (50% inhibition) ([7]; isolate MMX 7093 (FLU-R)): 0.12 µg/mL | MIC2 (50% inhibition) ([7]; isolate MMX 7101 (FLU-R)): 0.12 µg/mL | MIC2 (50% inhibition) ([7]; isolate MMX 7103 (CASP-R, MICA-R)): >8 µg/mL | MIC2 (50% inhibition) ([7]; isolate MMX 7111 (Susceptible)): 0.12 µg/mL | MIC2 (50% inhibition) ([7]; isolate MMX 7285 (CASP-R, MICA-R)): 0.5 µg/mL | MIC2 (50% inhibition) ([7]; isolate MMX 7307 (CASP-R, MICA-R, FLU-R)): >8 µg/mL | MIC2 (50% inhibition) ([7]; isolate MMX 7549 (Susceptible)): 0.06 µg/mL | MEC (minimum effective concentration) ([8]; A. fumigatus ATCC 204305): 0.25 µg/mL | MEC (minimum effective concentration) ([8]; A. fumigatus ATCC MYA-3626): 0.06 µg/mL | MEC (minimum effective concentration) ([8]; A. fumigatus MMX 5934): 0.12 µg/mL | MEC (minimum effective concentration) ([8]; A. fumigatus MMX 5938, 48 hr only, insufficient growth for 24 hr read): 0.12^b μg/mL | MEC (minimum effective concentration) ([8]; A. fumigatus MMX 5939): 0.12 µg/mL
